Test results from PubChem BioAssay (NCI).
Values joined by “and” are separate entries in the source; they are usually repeats but may differ in a detail not shown here. Equal entries are not always repeated.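 Growth conditions: 96-well plates. Treatment: test compound, 48 hours, 5 concentrations. Analysis: linear interpolation between bracketing concentrations; unreached endpoints set to highest concentration. GI50 is the concentration that inhibits growth by half. TGI: concentration producing complete growth inhibition.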

Tests used:
Experiment in all cases: inhibition of tumour cell growth, NCI panel, 48 h
ACHN renal = tested on: ACHN renal
HCC-2998 colon = tested on: HCC-2998 colon
HCT-15 colon = tested on: HCT-15 colon
KM12 colon = tested on: KM12 colon
NCI-H226 lung = tested on: NCI-H226 lung
OVCAR-8 ovarian = tested on: OVCAR-8 ovarian
SF-268 CNS = tested on: SF-268 CNS
SF-295 CNS = tested on: SF-295 CNS
SN12C renal = tested on: SN12C renal
U251 CNS = tested on: U251 CNS

Row | Structure (SMILES) | GI50 (ACHN renal) [µM] | TGI (ACHN renal) [µM] | GI50 (HCC-2998 colon) [µM] | TGI (HCC-2998 colon) [µM] | GI50 (HCT-15 colon) [µM] | TGI (HCT-15 colon) | GI50 (KM12 colon) [µM] | TGI (KM12 colon) | GI50 (NCI-H226 lung) [µM] | TGI (NCI-H226 lung) [µM] | GI50 (OVCAR-8 ovarian) [µM] | TGI (OVCAR-8 ovarian) | GI50 (SF-268 CNS) [µM] | TGI (SF-268 CNS) | GI50 (SF-295 CNS) [µM] | TGI (SF-295 CNS) [µM] | GI50 (SN12C renal) [µM] | TGI (SN12C renal) | GI50 (U251 CNS) [µM] | TGI (U251 CNS) [µM]
1 | CCNC1=CC(=O)c2ncccc2C1=O | 5.9 | 19.6 | 2.16 | 5.37 | 0.999 | 3.22 µM | 3.25 | 15.1 µM | 1.85 | 4.42 | 3.04 | 14.2 µM | 3.13 | 17.3 µM | 1.23 | 2.56 | 1.4 | 2.78 µM | 2.49 | 13.6
2 | O=C1CCCC2COc3ccc(O)c1c32 (stereo not given) | – | > 100 | – | > 100 | – | > 100 µM | – | > 100 µM | – | > 100 | – | > 100 µM | – | > 100 µM | – | > 100 | – | > 100 µM | – | > 100
3 | C[C@@H]1CC[C@H]2C(CN3CCN(CC4=C(C(F)(F)F)O[C@@H]5O[C@@]6(C)CC[C@H]7[C@H](C)CC[C@@H]4[C@@]57OO6)CC3)=C(C(F)(F)F)O[C@@H]3O[C@@]4(C)CC[C@@H]1[C@]32OO4 | 2.61 | > 27.2 | 10.5 | > 100 | 1.79 | > 37.2 µM | 0.944 | > 26.6 µM | 2.81 | > 100 | 2.29 | > 100 µM | 4.24 | > 100 µM | 5.01 | > 100 | 3.85 | > 100 µM | 0.653 | > 39.9
4 | C/C(=N\n1c(N)c(C#N)c(-c2ccc(Cl)cc2)c(C#N)c1=O)c1cccnc1 | > 100 | > 100 | > 100 | > 100 | > 100 | > 100 µM | > 100 | > 100 µM | > 100 | > 100 | > 100 | > 100 µM | > 100 | > 100 µM | > 100 | > 100 | > 100 | > 100 µM | > 100 | > 100
5 | O=[N+]([O-])C(=C(c1ccccc1)c1ccccc1)[N+](=O)[O-] | – | 25.5 | – | 24 | – | 32.6 µM | – | 30.2 µM | – | 61.5 | – | 21.5 µM | – | 12.7 µM | – | 26.3 | – | 30.9 µM | – | 26.4
6 | O=C1CCCc2c(O)ccc(O)c21 | – | > 100 | – | > 100 | – | > 100 µM | – | > 100 µM | – | > 100 | – | > 100 µM | – | > 100 µM | – | > 100 | – | > 100 µM | – | > 100
7 | COCCOCCOCCOCCOc1ccc2c(c1)C(=O)c1nc3ncccc3c(=O)n1-2 | 2.64 | 8.19 | 1.32 | 2.79 | 1.21 | 2.6 µM | 1.22 | 2.71 µM | 1.65 | 3.31 | 1.57 | 6.89 µM | 1.54 | 5.17 µM | 0.351 | 1.4 | 1.38 | 2.91 µM | 1.29 | 2.56
8 | CCn1cc(C2NC(=O)c3cc(F)ccc3N2)c2cccc(Cl)c21 (stereo not given) | 0.606 | > 100 | 0.348 | > 25.5 | 0.0968 | > 100 µM | 0.277 | > 100 µM | 0.664 | 9.63 | 0.408 | > 100 µM | 1.92 | > 100 µM | 0.1 | > 58.3 | 0.706 | > 100 µM | 0.33 | > 100
9 | COc1ccccc1OCC(O)CO (stereo not given) | > 100 | > 100 | > 100 | > 100 | > 100 | > 100 µM | > 100 | > 100 µM | > 100 | > 100 | > 100 | > 100 µM | > 100 | > 100 µM | > 100 | > 100 | > 100 | > 100 µM | > 100 | > 100
10 | Cn1cc(/C=C2\C(=O)Nc3cccnc32)c2ccccc21 | 11.5 | > 25 | > 25 | > 25 | > 17.3 | > 25 µM | 0.885 | > 25 µM | 10.8 | > 25 | 16.9 | > 25 µM | > 21.7 | > 25 µM | > 25 | > 25 | 9.88 | > 25 µM | > 25 | > 25
11 | COc1ccc(C2CC(C)=Nc3c([nH]c(=S)[nH]c3=O)N2)cc1 (stereo not given) | – | 36.1 | – | 30.3 | – | 33 µM | – | 32 µM | – | 44.6 | – | 35.7 µM | – | > 100 µM | – | 48.5 | – | 36.7 µM | – | 32.4
12 | O=C(/C=C/c1cccs1)Nc1ncc(Cc2ccccc2F)s1 | 0.462 | > 100 | 0.463 | > 100 | 0.123 | > 100 µM | 0.205 | > 100 µM | – | > 100 | 0.508 | > 100 µM | 0.757 | > 100 µM | 0.244 | > 100 | 0.633 | > 100 µM | 0.35 | > 100
13 | Nc1ccccc1C#Cc1ccccc1C#CCCCCO | 24.7 | 59 | 14.6 | 30.1 | 19.8 | 42.5 µM | 16.9 | 48.4 µM | 27.4 | 61.3 | 20.3 | 49.4 µM | 33.9 | > 100 µM | 29.2 | 81.2 | 2.8 | 9.49 µM | 22.6 | 47.1
14 | CC(C)S(=O)(=O)n1c(N)nc2ccc(/C(=N/O)c3ccccc3)cc21 | – | 57.8 | – | 53.2 | – | 79.3 µM | – | 45.8 µM | – | 23.4 | – | > 100 µM | – | > 100 µM | – | > 100 | – | > 100 µM | – | > 100
15 | O=C(O)CCN1C(=O)/C(=C/C(Cl)=C/c2ccccc2)SC1=S | 1.93 | 4.76 | 1.88 | 3.38 | 1.77 | 6.82 µM | 2.01 | 4.64 µM | 6.46 | 95.9 | 3.27 | 22.2 µM | 3.15 | 20.2 µM | 2.7 | 8.05 | 2.67 | 9.41 µM | 1.66 | 3.16
16 | S=C1OC2C3C4CC5C3C(O1)C1C5C4C21 (stereo not given) | – | > 100 | – | > 100 | – | > 100 µM | – | > 100 µM | – | > 100 | – | > 100 µM | – | > 100 µM | – | > 100 | – | > 100 µM | – | > 100
17 | O=C(O)C(O)C(O)C1[O][Sb][O]C1CO (stereo not given) | > 100 | > 100 | > 100 | > 100 | > 100 | > 100 µM | > 100 | > 100 µM | > 100 | > 100 | > 100 | > 100 µM | > 100 | > 100 µM | > 100 | > 100 | > 100 | > 100 µM | > 100 | > 100
18 | C1CCN2CC34CC(CC5CCCN(C6CCCC3N6)C54)C2C1 (stereo not given) | – | > 100 | – | > 100 | – | > 100 µM | – | > 100 µM | – | > 100 | – | > 100 µM | – | > 100 µM | – | > 100 | – | > 100 µM | – | > 100
19 | C[C@H]1CC(=O)[C@@]2(O)C#C/C=C\C#C[C@@H]3Nc4c(cc(O)c5c4C(=O)c4ccccc4C5=O)[C@]24O[C@]314 | – | 0.0252 | – | 0.0595 | 0.00722 | 0.836 µM and 0.148 µM | 0.128 | 0.226 µM and 0.48 µM | 0.0025 | – | 0.00468 | 0.124 µM and 0.258 µM | 0.00599 | 0.0897 µM and 0.543 µM | 0.0025 | 0.0542 | 0.0025 | 0.0288 µM and 0.0201 µM | – | 0.453
20 | COc1ccccc1OCC(COC(=O)Nc1ccc(C)cc1)OC(=O)Nc1ccc(C)cc1 (stereo not given) | – | 67.7 | – | 35.3 | – | 29.9 µM | – | 43.4 µM | – | 67.5 | – | 38.4 µM | – | 46.2 µM | – | 49 | – | 42.3 µM | – | 27.3
21 | C=C(C)[C@@H]1CC[C@]2(C#N)CC[C@]3(C)[C@H](CC[C@@H]4[C@@]5(C)CCCNC(C)(C)[C@@H]5CC[C@]43C)[C@@H]12 | 1.83 | 3.22 | 1.8 | 3.24 | 1.61 | 3.05 µM | 1.66 | 3.23 µM | 2.61 | 9.79 | 1.84 | 3.38 µM | 3.11 | 10.4 µM | 1.7 | 3.1 | 1.77 | 3.25 µM | 1.75 | 3.13
22 | O=C(Nc1ccc(-c2nc3ccc(NC(=O)c4ccc(Cl)cc4)cc3[nH]2)cc1)c1ccc(Cl)cc1 | 8.65 | 21.1 | 7.47 | 21.4 | 10.6 | 27.4 µM | 2.16 | 5.38 µM | 15.1 | 31.8 | 1.73 | 6.93 µM | 5.78 | 18.5 µM | 0.23 | 8.77 | 12 | 24.3 µM | 0.412 | 3.21
